For series [1] the following is noted: cited from earlier work.
For the next series, the system named is Hemoglobin F. The experiment in a line: Hemoglobin F level in total hemoglobin (% Hb F) by HPLC, efficacy study in anemic rhesus monkeys. It is filed as in vivo.
The subject of a further series is γ globin chain. Put plainly: % γ globin chain levels by HPLC, efficacy study in anemic rhesus monkeys. It counts as in vivo.
Series [2] is described as follows: Triglyceride and ALT levels during efficacy study in anemic rhesus monkeys. Particulars: all three groups, prior to or during the two phases.
The subject of series [3] is Fetal hemoglobin cells (F cells). Put plainly: Fetal hemoglobin cells (% F cells), efficacy study in anemic rhesus monkeys. It is filed as in vivo.
The conditions of series [4]: rhesus monkey, in vivo.
The test system of series [5] is sickle cell anemia patients. To be noted: cited from earlier work.
Setting [6] is: Groups II and III (compound IIIc).
[7] abbreviates: Group I (hydroxyurea in Phase I, hydroxyurea + compound IIIc in Phase II).

Where two headings read alike, the source gives them in different places.

Results on three compounds are retold here after patent US5912269A, “Butyrate prodrugs derived from lactic acid” (Vertex Pharmaceuticals, Inc., priority 1996, dated 1999).

Experimental for Hemoglobin F: (§1) The efficacy of compound IIIc administered in conjunction with hydroxyurea was tested on six anemic rhesus monkeys divided into three groups of two each. Each group was studied in two phases, as shown below. Fetal hemoglobin cells (F cells), Hemoglobin F level in total Hemoglobin (% Hb F) and % γ globin chain levels were monitored before and after each of the two phases. % F cells were measured according to the protocol described in Betke et al, Blut., 4, pp. 241-9 (1958). % Hb F and % γ globin chain synthesis were measured using High Performance Liquid Chromatography (HPLC) according to the protocol described in Huisman, J. Chromagtogr., 418, pp. 277 (1987).
Experimental for γ globin chain: as §1

For `CCCC(=O)OCOC(=O)C(C)(C)C` [AN-9], the “formaldehyde-producing metabolites in vivo” value in series [1] is listed as “elicit metabolites that may produce formaldehyde in vivo”.

Turning to `CCCC(=O)O[C@@H](C)C(=O)OCC` [Compound IIIc], in the series with Hemoglobin F (setting [6]), the HbF result is reported as “no measurable change”. The γ-globin chain levels result in the series with γ globin chain (setting [6]) is “no measurable change”. In series [2], the “levels of ALT” value was “no detectable difference” and the “levels of the triglycerides” value is given as “no detectable difference”. Besides, the “% F cell count at the end of Phase II” value in series [3] (Animal 2, group II, compound IIIc 1 g/kg/TID, 5 weeks, 8-10% before Phase I) amounted to 22%. The “% F cell count at the end of Phase I” value in series [3] (Animal 2, group II, compound IIIc 1 g/kg/day, 5 weeks, 8-10% before Phase I) turned out to be 15%. Besides, the “increase in % F cells” value in series [3] (setting [6]) is reported as “small but significant increase”.

For the compound `NC(=O)NO` [Hydroxyurea, hydroxyurea], in series [4], the “levels of ALT” value is listed as “no detectable difference” and the “levels of the triglycerides” value was “no detectable difference”. For the same compound, the “% Hb F level” value in the series on Hemoglobin F (setting [7]) was “measurable increase”. The “% γ-globin chain levels” value in the series with γ globin chain (setting [7]) is “measurable increase”. In addition, the “fetal hemoglobin production and sickling crisis” value in series [5] was “stimulates fetal hemoglobin production and reduces sickling crisis”. Besides, in series [3] (Animal 1, group I, hydroxyurea 50 mg/kg/day, 5 weeks, 8-10% before Phase I), the “% F cell count at the end of Phase I” value was found to be 25%.
